According to patent publication US11066384B2, “Crystalline forms of ARN-509, preparation method and use thereof” (Crystal Pharmaceutical (Suzhou) Co., Ltd., priority 2018, dated 2021):
“Also recorded” adds a separate entry of the source.

Experiments:
[1] = low solubility and high permeability; cited from earlier work
[2] = Kinetic solubility of Form CS8, Form A and Form B in pH 1.0-6.8 media (HPLC); type: physicochemical; conditions: for Solubility relative to Form A of the prior art / Solubility relative to Form B of the prior art: 15 minutes
Method: The HPLC method parameters for solubility test in the present disclosure are as follows:
1. Column: Waters XBridge C18 150×4.6 mm, 5 μm
2. Mobile Phase: A: 0.1% TFA in H2O • B: 0.1% TFA in Acetonitrile
4. Injection Volume: 5 μL
5. Detection wavelength: 242 nm
6. Column Temperature: 40° C.
Different parts of the human body have different acidity (pH 1.0-8.0). The pH in stomach is 1.0-2.0, and the pH in the small intestine is 4.0-7.0. The stomach and small intestine are the key organs for drug dissolution and absorption, so measuring the dynamic solubility of a drug in a medium with pH 1.0-7.0 plays an important role in predicting the in vivo bioavailability.
About 20 mg of Form CS8, Form A and Form B of the prior art were suspended into 2.0 mL of 0.1 mol/L HCl aqueous solution (pH=1.0), 2.0 mL of acetic acid buffer solution (PH=4.5) and 2.0 mL of phosphate buffer solution (pH=6.8) to make suspensions. After equilibrated for 15 minutes, 30 minutes, and 1 hour, concentrations (μg/mL) of the saturated solutions were measured by HPLC.

[3] = Storage stability of Form CS8 under long-term and accelerated conditions (XRPD, HPLC); type: physicochemical; conditions: for Solid form after storage / Purity after storage / Chemical purity during storage: 6 months; for Purity after storage: initial purity 99.96%; for Time for which the form does not change / keeps stable on storage / Chemical purity during storage: drug substance
Method: The HPLC method parameters for purity test in the present disclosure are as follows: Approximately 30 mg of Form CS8 was stored under 25° C./60% RH and 40° C./75% RH in open or close dishes. Crystalline form and chemical impurity were checked by XRPD and HPLC, respectively. XRPD pattern overlay of Form CS8 of the present disclosure before and after being stored under 25° C./60% RH are depicted in FIG. 13. XRPD pattern overlay of Form CS8 of the present disclosure before and after being stored under 40° C./75% RH are depicted in FIG. 14.

[4] = Storage stability of Form CS8 under stress condition (XRPD); type: physicochemical; conditions: 60° C./75% RH
Method: Approximately 30 mg of Form CS8 was stored under 60° C./75% RH in open or close dishes. Crystalline form change of Form CS8 was tested by XRPD.

[5] = Mechanical stability: tableting under different pressures (XRPD); type: physicochemical
Source text: A certain amount of Form CS8 was compressed into pellets under different pressures with suitable tableting die. Crystalline form before and after tableting were checked by XRPD. The test results are shown in Table 14, XRPD pattern overlay is depicted in FIG. 16.

[6] = Mechanical stability: manual grinding for 5 minutes (XRPD); type: physicochemical; conditions: ground manually for 5 minutes in a mortar
Method: Form CS8, Form A and Form B of the prior art were ground manually for 5 minutes in a mortar, XRPD patterns were collected before and after gridding. The XRPD pattern overlay of Form CS8, Form A and Form B of the prior art are depicted in FIG. 17, FIG. 18 and FIG. 19.

[7] = Particle size distribution (laser particle size analyzer); type: physicochemical; conditions: Isopar G containing 0.2% lecithin
Method: The particle size distribution data in the present disclosure were acquired by an […] laser particle size analyzer of Microtrac. Microtrac […] is equipped with an SDC (Sample Delivery Controller). The test is carried out in wet mode, and the dispersion medium is Isopar G. The laser particle size analyzer parameters are as follows: [table] Approximately 20 mg of Form CS8, Form A and Form B of the prior art were added into 10 mL of Isopar G (containing 0.2% lecithin). The mixture was mixed thoroughly and transferred into the SDC. The measurement was started when the sample amount indicator is in appropriate position. The average particle diameter calculated by volume, the diameter at which 10% mass is comprised of smaller particles (D10), the diameter at which 50% mass is comprised of smaller particles (D50) and the diameter at which 90% mass is comprised of smaller particles (D90) were obtained in particle size distribution test.

[8] = Adhesiveness: material sticking to the punch; type: physicochemical; conditions: 30 mg, φ8 mm round tooling, 10 KN, held 30 s
Method: Approximately 30 mg of Form CS8, Form A and Form B of the prior art were weighed and then added into the dies of φ8 mm round tooling, compressed at 10 KN and held for 30 s. The punch was weighed and amount of material sticking to the punch was calculated. The compression was repeated twice and the cumulative amount, maximum amount and average amount of material sticking to the punch during compression process were recorded.

[9] = Compressibility: tensile strength of compacts; type: physicochemical; conditions: 80 mg, φ6 mm round tooling, 10 KN; for Diameter / Hardness / Thickness: after 24 h at room temperature; for Tensile strength: T=2H/πDL
Method: 80 mg of Form CS8, Form A and Form B of the prior art were weighed and added into the dies of φ6 mm round tooling, compressed at 10 KN manually, then stored at room temperature for 24 h until complete elastic recovery. Hardness (H) was tested with an Intelligent Tablet Hardness Tester. Diameter (D) and thickness (L) were tested with a caliper. Tensile strength of the powder was calculated with the following formula: T=2H/πDL. Under a certain force, the greater the tensile strength, the better the compressibility.

[10] = test system: prostate cancer; conditions: clinical trials; cited from earlier work
[11] = 0.1 mol/L HCl aqueous solution pH=1.0, equilibrated 15 min
[12] = 0.1 mol/L HCl aqueous solution pH=1.0, equilibrated 30 min
[13] = 0.1 mol/L HCl aqueous solution pH=1.0, equilibrated 1 h
[14] = acetic acid buffer solution pH=4.5, equilibrated 15 min
[15] = acetic acid buffer solution pH=4.5, equilibrated 30 min
[16] = acetic acid buffer solution pH=4.5, equilibrated 1 h
[17] = pH=4.5 acetic acid buffer solution
[18] = pH=6.8 phosphate buffer solution
[19] = phosphate buffer solution pH=6.8, equilibrated 15 min
[20] = phosphate buffer solution pH=6.8, equilibrated 30 min
[21] = phosphate buffer solution pH=6.8, equilibrated 1 h

CNC(=O)c1ccc(N2C(=S)N(c3cnc(C#N)c(C(F)(F)F)c3)C(=O)C23CCC3)cc1F [ARN-509, 4-[7-(6-cyano-5-trifluoromethylpyridin-3-yl)-8-oxo-6-thioxo-5,7-diazaspiro[3.4]oct-5-yl]-2-fluoro-N-methylbenzamide]
BCS class [1]: BCS II

CNC(=O)c1ccc(N2C(=S)N(c3cnc(C#N)c(C(F)(F)F)c3)C(=O)C23CCC3)cc1F [Form CS8, 4-[7-(6-cyano-5-trifluoromethylpyridin-3-yl)-8-oxo-6-thioxo-5,7-diazaspiro[3.4]oct-5-yl]-2-fluoro-N-methylbenzamide]
Solubility (concentration of saturated solution) [2, 11]: 23.6 µg/mL
Solubility (concentration of saturated solution) [2, 12]: 25.1 µg/mL
Solubility (concentration of saturated solution) [2, 13]: 18.7 µg/mL
Solubility (concentration of saturated solution) [2, 14]: 17.7 µg/mL
Solubility (concentration of saturated solution) [2, 15]: 10.6 µg/mL
Solubility (concentration of saturated solution) [2, 16]: 10.9 µg/mL
Solubility relative to Form A of the prior art ([2]; pH=1.0 HCl aqueous solution): 3.2 times
Solubility relative to Form B of the prior art ([2]; pH=1.0 HCl aqueous solution): 19.7 times
Solubility relative to Form A of the prior art [2, 17]: 3.0 times
Solubility relative to Form B of the prior art [2, 17]: 16.1 times
Solubility relative to Form A of the prior art [2, 18]: 3.7 times
Solubility relative to Form B of the prior art [2, 18]: 19.0 times
Solubility (concentration of saturated solution) [2, 19]: 22.8 µg/mL
Solubility (concentration of saturated solution) [2, 20]: 18.9 µg/mL
Solubility (concentration of saturated solution) [2, 21]: 20.6 µg/mL
Solid form after storage ([3]; 25° C./60% RH (closed)): From CS8
Purity after storage ([3]; 25° C./60% RH (closed)): 99.96%
Solid form after storage ([3]; 25° C./60% RH (open)): From CS8
Purity after storage ([3]; 25° C./60% RH (open)): 99.96%
Solid form after storage ([3]; 40° C./75% RH (closed)): From CS8
Purity after storage ([3]; 40° C./75% RH (closed)): 99.95%
Solid form after storage ([3]; 40° C./75% RH (open)): From CS8
Purity after storage ([3]; 40° C./75% RH (open)): 99.95%
Time for which the form does not change / keeps stable on storage ([3]; 25° C./60% RH): at least 6 months
Chemical purity during storage ([3]; 25° C./60% RH): above 99.9%
Time for which the form does not change / keeps stable on storage ([3]; 40° C./75% RH): at least 6 months
Chemical purity during storage ([3]; 40° C./75% RH): above 99.9%
Time for which the form does not change / keeps stable on storage [4]: at least 2 weeks
Solid form after storage ([4]; container open or close, 2 weeks): Form CS8
Crystalline form after tableting ([5]; pressure 3 kN): Form CS8
Crystalline form after tableting ([5]; pressure 7 kN): Form CS8
Crystalline form after tableting ([5]; pressure 14 kN): Form CS8
Crystalline form/crystallinity after grinding [6]: doesn't change after grinding
D10 [7]: 48.60 μm
D50 [7]: 100.8 μm
D90 [7]: 164.9 μm
MV (average particle diameter calculated by volume) [7]: 104.7 μm
Average amount of material sticking to the punch [8]: 0.08 mg
Maximum amount of material sticking to the punch [8]: 0.11 mg
Diameter [9]: 6.05 mm
Hardness [9]: 14.6 N
Thickness [9]: 2.19 mm
Tensile strength [9]: 0.70 MPa

CNC(=O)c1ccc(N2C(=S)N(c3ccc(C#N)c(C(F)(F)F)c3)C(=O)C2(C)C)cc1F [Enzalutamide]
Share of patients in whom the drug is effective [10]: about 70%

CNC(=O)c1ccc(N2C(=S)N(c3cnc(C#N)c(C(F)(F)F)c3)C(=O)C23CCC3)cc1F [Form A of the prior art, 4-[7-(6-cyano-5-trifluoromethylpyridin-3-yl)-8-oxo-6-thioxo-5,7-diazaspiro[3.4]oct-5-yl]-2-fluoro-N-methylbenzamide]
Solubility (concentration of saturated solution) [2, 11]: 7.4 µg/mL
Solubility (concentration of saturated solution) [2, 12]: 6.2 µg/mL
Solubility (concentration of saturated solution) [2, 13]: 8.0 µg/mL
Solubility (concentration of saturated solution) [2, 14]: 5.9 µg/mL
Solubility (concentration of saturated solution) [2, 15]: 5.2 µg/mL
Solubility (concentration of saturated solution) [2, 16]: 5.5 µg/mL
Solubility (concentration of saturated solution) [2, 19]: 6.1 µg/mL
Solubility (concentration of saturated solution) [2, 20]: 8.4 µg/mL
Solubility (concentration of saturated solution) [2, 21]: 4.8 µg/mL
Crystalline form/crystallinity after grinding [6]: transformed into amorphous after grinding; also recorded: Almost change to amorphous
D10 [7]: 4.22 μm
D50 [7]: 14.81 μm
D90 [7]: 130.4 μm
MV (average particle diameter calculated by volume) [7]: 53.51 μm
Average amount of material sticking to the punch [8]: 0.13 mg
Maximum amount of material sticking to the punch [8]: 0.19 mg
Diameter [9]: 6.08 mm
Hardness [9]: 12.3 N
Thickness [9]: 2.10 mm
Tensile strength [9]: 0.64 MPa

CNC(=O)c1ccc(N2C(=S)N(c3cnc(C#N)c(C(F)(F)F)c3)C(=O)C23CCC3)cc1F [Form B of the prior art, 4-[7-(6-cyano-5-trifluoromethylpyridin-3-yl)-8-oxo-6-thioxo-5,7-diazaspiro[3.4]oct-5-yl]-2-fluoro-N-methylbenzamide]
Solubility (concentration of saturated solution) [2, 11]: 1.2 µg/mL
Solubility (concentration of saturated solution) [2, 12]: 1.5 µg/mL
Solubility (concentration of saturated solution) [2, 13]: 1.3 µg/mL
Solubility (concentration of saturated solution) [2, 14]: 1.1 µg/mL
Solubility (concentration of saturated solution) [2, 15]: 1.4 µg/mL
Solubility (concentration of saturated solution) [2, 16]: 1.3 µg/mL
Solubility (concentration of saturated solution) [2, 19]: 1.2 µg/mL
Solubility (concentration of saturated solution) [2, 20]: 1.0 µg/mL
Solubility (concentration of saturated solution) [2, 21]: 0.9 µg/mL
Crystalline form/crystallinity after grinding [6]: decreases after grinding; also recorded: Crystallinity decreased
D10 [7]: 12.1 μm
D50 [7]: 241.7 μm
D90 [7]: 1133 μm
MV (average particle diameter calculated by volume) [7]: 420.3 μm
Average amount of material sticking to the punch [8]: 0.15 mg
Maximum amount of material sticking to the punch [8]: 0.17 mg
Diameter [9]: 6.09 mm
Hardness [9]: 10.1 N
Thickness [9]: 2.13 mm
Tensile strength [9]: 0.50 MPa
